Measurements published in article PMC5743070 (The Journal of Biological Chemistry, 2017).
Where “and” joins values, the source holds several entries; their conditions need not be identical. Equal values may be shown once. Read-outs that look alike come from different tables or passages of the source.

Legend:
TTD (UHRF1_121–286) = target: T1, TTD (UHRF1_121–286) (Homo sapiens, UniProt Q96T88); assay: ITC of BPC binding to TTD
T1 construct: UHRF1_121–286 corresponding to the TTD; made in house
T1 sequence (Q96T88 121-286): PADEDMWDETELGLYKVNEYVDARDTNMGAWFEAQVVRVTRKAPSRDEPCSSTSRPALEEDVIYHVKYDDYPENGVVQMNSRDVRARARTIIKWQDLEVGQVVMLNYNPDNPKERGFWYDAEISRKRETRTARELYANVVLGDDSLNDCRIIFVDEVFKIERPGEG
Protocol: For ITC measurements of TTD–PHD (UHRF1_126–366) interaction with H3K9me3, samples were dialyzed into a buffer containing 10 mM HEPES (pH 7.5), 150 mM NaCl, 1 mM TCEP, and 30 μM ZnCl2. […] A preliminary peptide injection of 0.06 μl was followed by subsequent 2-μl injections into the sample cell containing 167 μl of 50 μM TTD–PHD. Where indicated, 1.5 mM BPC or 1.5 mM PBR peptide was included in the injection syringe and sample cell. The reported KD and n values are based on the average from two measurements. For ITC measurements of TTD (UHRF1_121–286) interaction with BPC, the protein was buffered in 20 mM Tris (pH 7.4), 50 mM NaCl, and 5% DMSO. BPC was brought to a concentration of 2.5 mM and injected into the sample cell containing 40 μM protein. The data were acquired on a Nano ITC from TA Instruments at 25 °C and fitted with an independent-binding site model using NanoAnalyze software (v3.7.0). […]
Binding of BPC in the groove of TTD.
labeled (at the N-terminus) H3K9me3(1-25) peptide, (B) ITC, and (C) DSF. […]

[1] = target: isolated TTD (UHRF1_121–286); assay: FP displacement of FITC-labeled H3K9me3(1–25) peptide from TTD; format: biochemical; settings: FP displacement of N-terminally FITC-labeled H3K9me3(1-25), 0.04 μM peptide, 8 μM TTD, 20 mM Tris pH 8.5, 50 mM NaCl, 3% DMSO, 0.01% TX100
From the text: We designed a fragment library containing 2,040 compounds that was initially screened against isolated TTD (UHRF1_121–286) using a fluorescence polarization (FP) assay that tracked the displacement of a N-terminally tagged H3K9me3 peptide (H3K9me3(1–25)). From this screen, eight putative TTD-binding hits were identified. […] Because of limited commercial availability of the tricyclic amine, we focused only on BPC. The binding of this compound occurs close to (or within) the Arg^296-binding pocket; we observe significant perturbation of Trp^238 and Phe^278 resonances that form part of the pocket, and in Gly^236, which is directly adjacent to it (Fig. 4A and supplemental Fig. S5). We also see chemical shift changes in non-surface exposed residues that are close to or are in contact with the groove.
For FP assays, the TTD (UHRF1_121–286) was buffered in 20 mM Tris (pH 8.5), 50 mM NaCl, 3% DMSO, and 0.01% TX100. N-terminal FITC-labeled H3K9me3(1–25) peptide was synthesized and purified by Tufts University Core Services (Boston, MA). Titrations and compound binding assays were performed in a 10-μl volume at a constant labeled peptide concentration of 0.04 μM. For compound screening and titrations, a non-saturating fixed protein concentration of 8 μM TTD was used. FP assays were performed in 384-well Axygen plates using a Synergy 4 microplate reader (BioTek). […]

TTD–PHD (UHRF1_126–366) = target: T2, TTD–PHD (UHRF1_126–366) (Homo sapiens, UniProt Q96T88); assay: ITC of H3 peptide binding to TTD–PHD
T2 construct: His tag (TEV-cleavable) (N); made in house
T2 sequence (Q96T88 126-366): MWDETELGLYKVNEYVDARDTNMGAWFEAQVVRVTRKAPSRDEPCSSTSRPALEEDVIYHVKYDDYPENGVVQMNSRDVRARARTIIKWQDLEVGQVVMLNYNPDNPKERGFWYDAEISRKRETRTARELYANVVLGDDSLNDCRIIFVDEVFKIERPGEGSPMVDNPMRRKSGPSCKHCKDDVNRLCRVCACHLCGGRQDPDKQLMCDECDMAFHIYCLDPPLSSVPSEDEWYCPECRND
Protocol: A preliminary peptide injection of 0.06 μl was followed by subsequent 2-μl injections into the sample cell containing 167 μl of 50 μM TTD–PHD. Where indicated, 1.5 mM BPC or 1.5 mM PBR peptide was included in the injection syringe and sample cell. The reported KD and n values are based on the average from two measurements. For ITC measurements of TTD (UHRF1_121–286) interaction with BPC, the protein was buffered in 20 mM Tris (pH 7.4), 50 mM NaCl, and 5% DMSO. BPC was brought to a concentration of 2.5 mM and injected into the sample cell containing 40 μM protein. The data were acquired on a Nano ITC from TA Instruments at 25 °C and fitted with an independent-binding site model using NanoAnalyze software (v3.7.0).
ITC curves showing TTD-PHD binding to methylated (red) and unmethylated (black) H3 peptide.
(1 picture or pasted object on this page, not shown here)

[2] = ITC, 2.5 mM BPC into 40 μM TTD, pH 7.4, 5% DMSO, 25 °C

Kd (TTD (UHRF1_121–286); ITC, 2.5 mM BPC into 40 μM TTD, 20 mM Tris pH 7.4, 50 mM NaCl, 5% DMSO, 25 °C, independent-binding site model, read-out: KD): 46 µM | H (enthalpy of binding, ITC) (TTD (UHRF1_121–286); [2]): -2.6 kcal/mol | S (entropy of binding, ITC) (TTD (UHRF1_121–286); [2]): 11.0 cal/mol∙K | calculated ligand efficiency (binding energy per heavy atom) (TTD (UHRF1_121–286); calculated from KD for TTD): 0.38 | Kd (TTD (UHRF1_121–286); isolated TTD, estimated using ITC and DSF, read-out: estimated KD): 50 µM and ~50 µM | Kdisp [1]: 312 µM | increase of KD for H3K9me3 (effect of added ligand) (TTD–PHD (UHRF1_126–366); 1.5 mM BPC or PBR peptide in syringe and cell, vs apo TTD–PHD): ~5 fold
SMILES: N=C(N)N1CCC(Cc2ccccc2)CC1 [BPC, 4-benzylpiperidine-1-carboximidamide]
effect on TTD–PHD binding affinity for the histone peptide (TTD–PHD (UHRF1_126–366); 1.5 mM BPC (4% DMSO) or 1.5 mM PBR peptide, H3K9me3(1–15)): reduces the TTD–PHD binding affinity for the histone peptide
